Measurements published in patent US11534412B2, “Application of totarol and pharmaceutical composition containing totarol” (Emergopharm SP. Z O.O. SP.K., priority 2017, dated 2022).

System: Streptococcus agalactiae - clinical strain
Assay: Determination of the MIC value of totarol, broth dilution in 96-well plates with OD and quantitative culture
Format: cell-based
Details: for OD, average of 3 measurements / OD: 620 nm
Description: Test of antibacterial activity of totarol using DMI (dimethylisosorbide) as a solvent.
1 ml of the suspension was collected to 9 ml of a TSB broth ([…]). Suspensions with a dilution of 10^−6 were prepared in the described way. A suspension with a cell density of 10^5 cfu/ml was selected for further investigations. For each strain, 2 96-well plates were prepared: the first one was intended for the OD measurement, the second one—for quantitative culture on solid media. • A/ to wells B1-D1, B2-D2 and B-D 4-11, 100 µl of the broth were added; • B/ to wells B3-D3, 200 µl of the broth were added; • C/ to wells B1-D1, 1 µl of stock I was added; • D/ to wells B2-D2, 1 µl of stock II was added; • E/ to wells B3-D3, 2 µl of stock III were added. Using a multichannel pipette, 100 µl of the sample were collected from each of the B3-D3 wells and placed in wells B4-D4 (mixing by sucking the content in and letting it out for 5 times). The pipette tips were replaced and 100 µl of the content were collected from of the B4-D4 wells, and placed in wells B5-D5, mixing as previously. These operations were repeated through the wells B11-D11. The content in the B11-D11 wells was mixed, and 100 µl of the fluid were collected and discarded. This way, a series of dilutions of totarol samples in DMI in the range of 0.32% to 0.0004% was obtained. Then, 100 µl of a corresponding bacterial culture were added to the wells B, C, D 1-11. In consequence, a change in the final concentration range occurred, to 0.16%-0.0002%. Control Preparation: • Negative control: 100 µl of the broth+1 pl DMI were added to the Al well. • Positive control (I): 100 µl of the broth with the bacterial culture were added to the wells E1-G1. • Diluent positive control (II): 100 µl of the broth with the bacterial culture+1 pl DMI were added to the wells E2-G2. The OD value in the individual wells was read at the wavelength of 620 nm (read time 0). From the second 96-well plate, a culture was inoculated by a quantitative method from every dilution onto a well with a proper solid medium, and incubated for 24 h at 37° C. under aerobic or anaerobic conditions, depending on the strain. The plates were incubated under aerobic conditions or in an atmosphere of an elevated CO2 concentration (for the strains requiring it) in an incubator at 37° C. The OD was read after 8 h, 16 h, and 24 h, respectively. Before every OD measurement, the contents of the wells were mixed delicately. In parallel to the OD readout, cultures we inoculated from the second 96-well plate, from every dilution, into plates with a proper solid medium, and incubated for 24 h at 37° C., under aerobic or anaerobic conditions. For the analysis of the experimental results, an average value of the OD measurement obtained from three repetitions in the individual times (0, 8, 16, and 24 h) for the individual microbes (Gardnerella vaginalis, Streptococcus agalactiae, Enterococcus faecalis, Lactobacillus gasseri/plantarum) was taken. Additionally, the number of bacteria grown on solid media was taken into account. The results of the tests confirm the specific, concentration-dependent selectiveness, and the high antibacterial effectiveness of totarol against the pathogenic microorganisms: Gardnerella vaginalis, Streptococcus agalactiae, Enterococcus faecalis at low MIC values safe for bacteria of the Lactobacillus genus.

SMILES: CC(C)c1c(O)ccc2c1CC[C@H]1C(C)(C)CCC[C@]21C [Totarol, totarol]
- MIC value (S. agalactiae): 0.0013%
- Viable bacterial count by quantitative culture (cfu/ml) (totarol 0.0002%, 0 h): 3.4 × 10^5 cfu/ml
- OD, average of 3 measurements (totarol 0.0002%, 0 h): 0.289
- Viable bacterial count by quantitative culture (cfu/ml) (totarol 0.0002%, 8 h): 4 × 10^6 cfu/ml
- OD, average of 3 measurements (totarol 0.0002%, 8 h): 0.314
- Viable bacterial count by quantitative culture (cfu/ml) (totarol 0.0002%, 16 h): 1.1 × 10^6 cfu/ml
- OD, average of 3 measurements (totarol 0.0002%, 16 h): 0.498
- Viable bacterial count by quantitative culture (cfu/ml) (totarol 0.0002%, 24 h): 1 × 10^7 cfu/ml
- OD (totarol 0.0002%, 24 h): 0.682
- Viable bacterial count by quantitative culture (cfu/ml) (totarol 0.0004%, 0 h): 6 × 10^5 cfu/ml
- OD, average of 3 measurements (totarol 0.0004%, 0 h): 0.305
- Viable bacterial count by quantitative culture (cfu/ml) (totarol 0.0004%, 8 h): 6 × 10^6 cfu/ml
- OD, average of 3 measurements (totarol 0.0004%, 8 h): 0.318
- Viable bacterial count by quantitative culture (cfu/ml) (totarol 0.0004%, 16 h): 9.1 × 10^5 cfu/ml
- OD, average of 3 measurements (totarol 0.0004%, 16 h): 0.493
- Viable bacterial count by quantitative culture (cfu/ml) (totarol 0.0004%, 24 h): 2 × 10^7 cfu/ml
- OD (totarol 0.0004%, 24 h): 0.668
- Viable bacterial count by quantitative culture (cfu/ml) (totarol 0.0007%, 0 h): 4.5 × 10^5 cfu/ml
- OD, average of 3 measurements (totarol 0.0007%, 0 h): 0.297
- Inoculation cfu/ml (totarol 0.0007%, 8 h): 6 × 10^4 cfu/ml
- OD, average of 3 measurements (totarol 0.0007%, 8 h): 0.319
- Viable bacterial count by quantitative culture (cfu/ml) (totarol 0.0007%, 16 h): 3.5 × 10^6 cfu/ml
- OD, average of 3 measurements (totarol 0.0007%, 16 h): 0.630
- Viable bacterial count by quantitative culture (cfu/ml) (totarol 0.0007%, 24 h): 6 × 10^7 cfu/ml
- OD (totarol 0.0007%, 24 h): 0.941
- Viable bacterial count by quantitative culture (cfu/ml) (totarol 0.0013%, 0 h): 3.3 × 10^5 cfu/ml
- OD, average of 3 measurements (totarol 0.0013%, 0 h): 0.299
- Viable bacterial count by quantitative culture (cfu/ml) (totarol 0.0013%, 8 h): 0 cfu/ml
- OD, average of 3 measurements (totarol 0.0013%, 8 h): 0.302
- Viable bacterial count by quantitative culture (cfu/ml) (totarol 0.0013%, 16 h): 0 cfu/ml
- OD, average of 3 measurements (totarol 0.0013%, 16 h): 0.302
- Viable bacterial count by quantitative culture (cfu/ml) (totarol 0.0013%, 24 h): 0 cfu/ml
- OD (totarol 0.0013%, 24 h): 0.302
- Viable bacterial count by quantitative culture (cfu/ml) (totarol 0.0025%, 0 h): 2.6 × 10^5 cfu/ml
- OD, average of 3 measurements (totarol 0.0025%, 0 h): 0.289
- Viable bacterial count by quantitative culture (cfu/ml) (totarol 0.0025%, 8 h): 0 cfu/ml
- OD, average of 3 measurements (totarol 0.0025%, 8 h): 0.290
- Viable bacterial count by quantitative culture (cfu/ml) (totarol 0.0025%, 16 h): 0 cfu/ml
- OD, average of 3 measurements (totarol 0.0025%, 16 h): 0.291
- Viable bacterial count by quantitative culture (cfu/ml) (totarol 0.0025%, 24 h): 0 cfu/ml
- OD (totarol 0.0025%, 24 h): 0.291
- Viable bacterial count by quantitative culture (cfu/ml) (totarol 0.005%, 0 h): 1.5 × 10^5 cfu/ml
- OD, average of 3 measurements (totarol 0.005%, 0 h): 0.288
- Viable bacterial count by quantitative culture (cfu/ml) (totarol 0.005%, 8 h): 0 cfu/ml
- OD, average of 3 measurements (totarol 0.005%, 8 h): 0.292
- Viable bacterial count by quantitative culture (cfu/ml) (totarol 0.005%, 16 h): 0 cfu/ml
- OD, average of 3 measurements (totarol 0.005%, 16 h): 0.296
- Viable bacterial count by quantitative culture (cfu/ml) (totarol 0.005%, 24 h): 0 cfu/ml
- OD (totarol 0.005%, 24 h): 0.300
- Viable bacterial count by quantitative culture (cfu/ml) (totarol 0.01%, 0 h): 10^5 cfu/ml
- OD, average of 3 measurements (totarol 0.01%, 0 h): 0.297
- Viable bacterial count by quantitative culture (cfu/ml) (totarol 0.01%, 8 h): 0 cfu/ml
- OD, average of 3 measurements (totarol 0.01%, 8 h): 0.295
- Viable bacterial count by quantitative culture (cfu/ml) (totarol 0.01%, 16 h): 0 cfu/ml
- OD, average of 3 measurements (totarol 0.01%, 16 h): 0.301
- Viable bacterial count by quantitative culture (cfu/ml) (totarol 0.01%, 24 h): 0 cfu/ml
- OD (totarol 0.01%, 24 h): 0.307
- Viable bacterial count by quantitative culture (cfu/ml) (totarol 0.02%, 0 h): 10^5 cfu/ml
- OD, average of 3 measurements (totarol 0.02%, 0 h): 0.318
- Viable bacterial count by quantitative culture (cfu/ml) (totarol 0.02%, 8 h): 0 cfu/ml
- OD, average of 3 measurements (totarol 0.02%, 8 h): 0.323
- Viable bacterial count by quantitative culture (cfu/ml) (totarol 0.02%, 16 h): 0 cfu/ml
- OD, average of 3 measurements (totarol 0.02%, 16 h): 0.324
- Viable bacterial count by quantitative culture (cfu/ml) (totarol 0.02%, 24 h): 0 cfu/ml
- OD (totarol 0.02%, 24 h): 0.324
- Viable bacterial count by quantitative culture (cfu/ml) (totarol 0.04%, 0 h): 3 × 10^5 cfu/ml
- OD, average of 3 measurements (totarol 0.04%, 0 h): 0.406
- Viable bacterial count by quantitative culture (cfu/ml) (totarol 0.04%, 8 h): 0 cfu/ml
- OD, average of 3 measurements (totarol 0.04%, 8 h): 0.535
- Viable bacterial count by quantitative culture (cfu/ml) (totarol 0.04%, 16 h): 0 cfu/ml
- OD, average of 3 measurements (totarol 0.04%, 16 h): 0.489
- Viable bacterial count by quantitative culture (cfu/ml) (totarol 0.04%, 24 h): 0 cfu/ml
- OD (totarol 0.04%, 24 h): 0.405
- Viable bacterial count by quantitative culture (cfu/ml) (totarol 0.08%, 0 h): 5 × 10^5 cfu/ml
- OD, average of 3 measurements (totarol 0.08%, 0 h): 0.563
- Viable bacterial count by quantitative culture (cfu/ml) (totarol 0.08%, 8 h): 0 cfu/ml
- OD, average of 3 measurements (totarol 0.08%, 8 h): 0.564
- Viable bacterial count by quantitative culture (cfu/ml) (totarol 0.08%, 16 h): 0 cfu/ml
- OD, average of 3 measurements (totarol 0.08%, 16 h): 0.540
- Viable bacterial count by quantitative culture (cfu/ml) (totarol 0.08%, 24 h): 0 cfu/ml
- OD (totarol 0.08%, 24 h): 0.430
- Viable bacterial count by quantitative culture (cfu/ml) (totarol 0.16%, 0 h): 2 × 10^5 cfu/ml
- OD, average of 3 measurements (totarol 0.16%, 0 h): 0.512
- Viable bacterial count by quantitative culture (cfu/ml) (totarol 0.16%, 8 h): 0 cfu/ml
- OD, average of 3 measurements (totarol 0.16%, 8 h): 0.605
- Viable bacterial count by quantitative culture (cfu/ml) (totarol 0.16%, 16 h): 0 cfu/ml
- OD, average of 3 measurements (totarol 0.16%, 16 h): 0.569
- Viable bacterial count by quantitative culture (cfu/ml) (totarol 0.16%, 24 h): 0 cfu/ml
- OD (totarol 0.16%, 24 h): 0.615
